Measurements reported in US12485123B2, “1H-pyrazolo[4,3-d]pyrimidine compounds as toll-like receptor 7 (TLR7) agonists” (BRISTOL-MYERS SQUIBB COMPANY, priority 2020, dated 2025).

Assays:
[1] = biological target: T1, human TLR7 (Homo sapiens, UniProt Q9NYK1); assay: Human TLR7 agonist activity reporter assay (HEK-Blue TLR7 cells, SEAP reporter); assay type: cell-based; settings: human TLR7 (hTLR7) reporter assay, SEAP readout after 18 h, average where assay repeated, read-out: TLR7 Agonism EC50
T1 construct: host or cells: HEK-Blue TLR7 cells (engineered human embryonic kidney cells)
T1 sequence (Q9NYK1 27-1049): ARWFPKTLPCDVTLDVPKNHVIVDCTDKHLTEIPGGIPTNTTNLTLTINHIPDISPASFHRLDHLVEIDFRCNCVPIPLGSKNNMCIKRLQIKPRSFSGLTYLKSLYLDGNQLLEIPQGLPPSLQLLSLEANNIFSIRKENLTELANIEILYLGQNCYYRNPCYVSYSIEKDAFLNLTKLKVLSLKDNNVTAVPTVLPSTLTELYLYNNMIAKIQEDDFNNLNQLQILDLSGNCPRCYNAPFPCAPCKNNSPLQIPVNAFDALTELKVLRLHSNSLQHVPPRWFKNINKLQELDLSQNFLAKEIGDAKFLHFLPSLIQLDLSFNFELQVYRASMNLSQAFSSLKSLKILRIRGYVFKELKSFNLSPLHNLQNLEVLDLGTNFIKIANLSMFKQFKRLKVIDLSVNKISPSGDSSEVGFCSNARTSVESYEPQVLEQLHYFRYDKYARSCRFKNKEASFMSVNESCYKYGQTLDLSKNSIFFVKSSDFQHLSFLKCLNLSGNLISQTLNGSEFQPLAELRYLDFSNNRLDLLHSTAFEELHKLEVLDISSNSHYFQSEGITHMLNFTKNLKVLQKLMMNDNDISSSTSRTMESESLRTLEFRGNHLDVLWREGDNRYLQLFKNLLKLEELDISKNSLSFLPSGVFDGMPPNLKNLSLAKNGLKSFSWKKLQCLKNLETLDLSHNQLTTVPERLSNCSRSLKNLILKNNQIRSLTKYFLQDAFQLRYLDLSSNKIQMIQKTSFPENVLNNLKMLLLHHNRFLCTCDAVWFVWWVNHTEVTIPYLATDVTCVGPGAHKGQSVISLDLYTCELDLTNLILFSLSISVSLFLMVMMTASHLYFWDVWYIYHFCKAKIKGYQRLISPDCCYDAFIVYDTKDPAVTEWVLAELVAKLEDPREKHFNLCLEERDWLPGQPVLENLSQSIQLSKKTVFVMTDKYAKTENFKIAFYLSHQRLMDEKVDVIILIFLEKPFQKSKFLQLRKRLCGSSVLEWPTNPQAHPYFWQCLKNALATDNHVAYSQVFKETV
Method: Human TLR7 Agonist Activity Assay
This procedure describes a method for assaying human TLR7 (hTLR7) agonist activity of the compounds disclosed in this specification.
HEK-Blue™ TLR7 cells were added to each well of a 384-well tissue-culture plate (15,000 cells per well) and incubated 16-18 h at 37° C., 5% CO2. Compounds (100 nl) were dispensed into wells containing the HEK-Blue™ TLR cells and the treated cells were incubated at 37° C., 5% CO2. After 18 h treatment ten microliters of freshly-prepared Quanti-Blue™ reagent (Invivogen) was added to each well, incubated for 30 min (37° C., 5% CO2) and SEAP levels measured using an Envision plate reader (OD=620 nm).

[2] = tested on: CD69; assay: Induction of CD69 in human whole blood; assay type: cell-based; settings: 17 hrs incubation, CD69 surface staining, 100% set to 1 uM of resiquimod, average where assay repeated, read-out: hWB CD69 EC50
Method: Induction of Type I Interferon Genes (MX-1) and CD69 in Human Blood
The induction of Type I interferon (IFN) MX-1 genes and the B-cell activation marker CD69 are downstream events that occur upon activation of the TLR7 pathway. The following is a human whole blood assay that measures their induction in response to a TLR7 agonist.
Heparinized human whole blood was harvested from human subjects and treated with test TLR7 agonist compounds at 1 mM. The blood was diluted with RPMI 1640 media and Echo was used to predot 10 nL per well giving a final concentration of 1 uM (10 nL in 10 uL of blood). After mixing on a shaker for 30 sec, the plates were covered and placed in a 37° C. chamber for o/n=17 hrs. Fixing/lysis buffer was prepared (5×→1× in H2O, warm at 37° C.; Cat #BD 558049) and kept the perm buffer (on ice) for later use.
For surface markers staining (CD69): prepared surface Abs: 0.045 ul hCD14-FITC (ThermoFisher Cat #MHCD1401)+0.6 ul hCD19-ef450 (ThermoFisher Cat #48-0198-42)+1.5 ul hCD69-PE (cat #BD555531)+0.855 ul FACS buffer. Added 3 ul/well, spin 1000 rpm for 1 min and mixed on shaker for 30 sec, put on ice for 30 min. Stop stimulation after 30 minutes with 70 uL of prewarmed 1× fix/lysis buffer and use Feliex mate to resuspend (15 times, change tips for each plate) and incubate at 37 C for 10 minutes.
Centrifuge at 2000 rpm for 5 minutes aspirate with HCS plate washer, mix on shaker for 30 sec and then wash with 70 uL in dPBS and pelleted 2×s (2000 rpm for 5 min) and 50 ul wash in FACS buffer pelleted 1×s (2000 rpm for 5 min). Mix on shaker for 30 sec. For Intracellular markers staining (MX-1): Add 50 ul of BD Perm buffer III and mix on shaker for 30 sec. Incubate on ice for 30 minutes (in the dark). Wash with 50 uL of FACS buffer 2× (spin @2300 rpm×5 min after perm) followed by mixing on shaker for 30 sec. Resuspended in 20 ul of FACS buffer containing MX1 antibody ( )(4812)-Alexa 647: Novus Biologicals #NBP2-43704AF647) 20 ul FACS bf+0.8 ul hIgG+0.04 ul MX-1. Spin 1000 rpm for 1 min, mix on shaker for 30 se and the samples were incubated at RT in the dark for 45 minutes followed by washing 2×FACS buffer (spin @2300 rpm×5 min after perm). Resuspend 20 ul (35 uL total per well) of FACS buffer and cover with foil and place in 4° C. to read the following day. Plates were read on iQuePlus. The results were loaded into toolset and […] curves are generated in curve master. The y-axis 100% is set to 1 uM of resiquimod.

## CCCCNc1nc(N)nc2cnn(Cc3ccc(CNC4CCC4)c4cccnc34)c12 [Compound 101, N7-butyl-1-({5-[(cyclobutylamino)methyl]quinolin-8-yl}methyl)-1H-pyrazolo[4,3-d]pyrimidine-5,7-diamine]
[1]
  EC50: 0.0933 µM
[2]
  EC50: 0.0471 µM

## CCC[C@@H](CCO)Nc1nc(N)nc2cnn(Cc3ccc(CN4CC(OC)C4)c4cccnc34)c12 [Compound 102, (3S)-3-{[5-amino-1-({5-[(3-methoxyazetidin-1-yl)methyl]quinolin-8-yl}methyl)-1H-pyrazolo[4,3-d]pyrimidin-7-yl]amino}hexan-1-ol]
[1]
  EC50: 0.0308 µM
[2]
  EC50: 0.0122 µM

## CCC[C@@H](CCO)Nc1nc(N)nc2cnn(Cc3ccc(CNC4CCC4)c4cccnc34)c12 [Compound 103, (3S)-3-{[5-amino-1-({5-[(cyclobutylamino)methyl]quinolin-8-yl}methyl)-1H-pyrazolo[4,3-d]pyrimidin-7-yl]amino}hexan-1-ol]
[1]
  EC50: 0.0138 µM
[2]
  EC50: 0.0106 µM

## CCC[C@@H](CCO)Nc1nc(N)nc2cnn(Cc3ccc(CNC4CCOCC4)c4cccnc34)c12 [Compound 104, (3S)-3-({5-amino-1-[(5-{[(oxan-4-yl)amino]methyl}quinolin-8-yl)methyl]-1H-pyrazolo[4,3-d]pyrimidin-7-yl}amino)hexan-1-ol]
[2]
  EC50: 0.0134 µM

## CCC[C@@H](CCO)Nc1nc(N)nc2cnn(Cc3ccc(CN4CC(O)C4)c4cccnc34)c12 [Compound 105, 1-({8-[(5-amino-7-{[(3S)-1-hydroxyhexan-3-yl]amino}-1H-pyrazolo[4,3-d]pyrimidin-1-yl)methyl]quinolin-5-yl}methyl)azetidin-3-ol]
[1]
  EC50: 0.0494 µM
[2]
  EC50: 0.0138 µM

## CCC[C@@H](CCO)Nc1nc(N)nc2cnn(Cc3ccc(CN4CC5(CCOCC5)C4)c4cccnc34)c12 [Compound 106, (3S)-3-[(5-amino-1-{[5-({7-oxa-2-azaspiro[3.5]nonan-2-yl}methyl)quinolin-8-yl]methyl}-1H-pyrazolo[4,3-d]pyrimidin-7-yl)amino]hexan-1-ol]
[1]
  EC50: 0.0193 µM
[2]
  EC50: 0.0481 µM

## CCCCNc1nc(N)nc2cnn(Cc3ccc(CN4CCOCC4)c4cccnc34)c12 [Compound 107, N7-butyl-1-({5-[(morpholin-4-yl)methyl]quinolin-8-yl}methyl)-1H-pyrazolo[4,3-d]pyrimidine-5,7-diamine]
[1]
  EC50: 0.156 µM
[2]
  EC50: 0.321 µM

## CCC[C@@H](CCO)Nc1nc(N)nc2cnn(Cc3ccc(C(=O)N4CC(OC)C4)c4cccnc34)c12 [Compound 108, (3S)-3-[(5-amino-1-{[5-(3-methoxyazetidine-1-carbonyl)quinolin-8-yl]methyl}-1H-pyrazolo[4,3-d]pyrimidin-7-yl)amino]hexan-1-ol]
[1]
  EC50: 0.0676 µM
[2]
  EC50: 0.11 µM

## CCCCNc1nc(N)nc2cnn(Cc3ccc(CNC4CCOCC4)c4cccnc34)c12 [Compound 109, N7-butyl-1-[(5-{[(oxan-4-yl)amino]methyl}quinolin-8-yl)methyl]-1H-pyrazolo[4,3-d]pyrimidine-5,7-diamine]
[1]
  EC50: 0.0552 µM
[2]
  EC50: 0.0415 µM

## CCC[C@@H](CCO)Nc1nc(N)nc2cnn(Cc3cccc4cccnc34)c12 [Compound 110, (3S)-3-({5-amino-1-[(quinolin-8-yl)methyl]-1H-pyrazolo[4,3-d]pyrimidin-7-yl}amino)hexan-1-ol]
[1]
  EC50: 0.287 µM
[2]
  EC50: 0.729 µM

## CCC[C@@H](CCO)Nc1nc(N)nc2cnn(Cc3ccc(C(=O)N4CCN(CCO)CC4)c4cccnc34)c12 [Compound 111, (3S)-3-{[5-amino-1-({5-[4-(2-hydroxyethyl)piperazine-1-carbonyl]quinolin-8-yl}methyl)-1H-pyrazolo[4,3-d]pyrimidin-7-yl]amino}hexan-1-ol]
[1]
  EC50: 0.066 µM
[2]
  EC50: 0.0577 µM

## CCC[C@@H](CCO)Nc1nc(N)nc2cnn(Cc3ccc(C(=O)N(C)C4CCOCC4)c4cccnc34)c12 [Compound 129, 8-[(5-amino-7-{[(3S)-1-hydroxyhexan-3-yl]amino}-1H-pyrazolo[4,3-d]pyrimidin-1-yl)methyl]-N-methyl-N-(oxan-4-yl)quinoline-5-carboxamide]
[2]
  EC50: 0.0833 µM

## CCC[C@@H](CCO)Nc1nc(N)nc2cnn(Cc3ccc(C(=O)N4CC5(CN(C)C5)C4)c4cccnc34)c12 [Compound 130, (3S)-3-({5-amino-1-[(5-{6-methyl-2,6-diazaspiro[3.3]heptane-2-carbonyl}quinolin-8-yl)methyl]-1H-pyrazolo[4,3-d]pyrimidin-7-yl}amino)hexan-1-ol]
[2]
  EC50: 0.0497 µM

## CCC[C@@H](CCO)Nc1nc(N)nc2cnn(Cc3ccc(C(=O)N4CCN(CCOC)CC4)c4cccnc34)c12 [Compound 131, (3S)-3-{[5-amino-1-({5-[4-(2-methoxyethyl)piperazine-1-carbonyl]quinolin-8-yl}methyl)-1H-pyrazolo[4,3-d]pyrimidin-7-yl]amino}hexan-1-ol]
[2]
  EC50: 0.0919 µM

## CCC[C@@H](CCO)Nc1nc(N)nc2cnn(Cc3ccc(C(=O)N4CC(CCO)C4)c4cccnc34)c12 [Compound 132, (3S)-3-{[5-amino-1-({5-[3-(2-hydroxyethyl)azetidine-1-carbonyl]quinolin-8-yl}methyl)-1H-pyrazolo[4,3-d]pyrimidin-7-yl]amino}hexan-1-ol]
[2]
  EC50: 0.102 µM

## CCC[C@@H](CCO)Nc1nc(N)nc2cnn(Cc3ccc(C4CCN(C5CCOCC5)CC4)c4cccnc34)c12 [Compound 142, (3S)-3-{[5-amino-1-({5-[1-(oxan-4-yl)piperidin-4-yl]quinolin-8-yl}methyl)-1H-pyrazolo[4,3-d]pyrimidin-7-yl]amino}hexan-1-ol]
[1]
  EC50: 0.0086 µM

## CCC[C@@H](CCO)Nc1nc(N)nc2cnn(Cc3ccc(C4CCN(C(C)C)CC4)c4cccnc34)c12 [Compound 143, (3S)-3-{[5-amino-1-({5-[1-(propan-2-yl)piperidin-4-yl]quinolin-8-yl}methyl)-1H-pyrazolo[4,3-d]pyrimidin-7-yl]amino}hexan-1-ol]
[1]
  EC50: 0.0061 µM
